{"source": "patent US7414041B2", "about": "(Trustees Of Tufts College, priority 1991, dated 2008)", "key": {"E. coli D1-299 (Tet A)": {"test_system": "E. coli D1-299 (Tet A)", "type": "cell-based"}, "E. coli ML308": {"test_system": "E. coli ML308", "experiment": "MIC of tetracycline susceptible strains, C5 esters", "type": "cell-based", "details": "Escherichia coli; E. coli ML308, alone; read-out: MIC"}, "[1]": {"molecular_target": "T1, TET proteins responsible for tetracycline efflux (Class B tetracycline resistance determinant, strain D1-209) (Escherichia coli, UniProt P02980)", "T1 construct": "Everted vesicles, to which the TET proteins responsible for tetracycline efflux are attached; endogenous in cells; host or cells: E. coli strain D1-209 (everted membrane vesicles)", "T1 sequence (P02980 whole entry)": "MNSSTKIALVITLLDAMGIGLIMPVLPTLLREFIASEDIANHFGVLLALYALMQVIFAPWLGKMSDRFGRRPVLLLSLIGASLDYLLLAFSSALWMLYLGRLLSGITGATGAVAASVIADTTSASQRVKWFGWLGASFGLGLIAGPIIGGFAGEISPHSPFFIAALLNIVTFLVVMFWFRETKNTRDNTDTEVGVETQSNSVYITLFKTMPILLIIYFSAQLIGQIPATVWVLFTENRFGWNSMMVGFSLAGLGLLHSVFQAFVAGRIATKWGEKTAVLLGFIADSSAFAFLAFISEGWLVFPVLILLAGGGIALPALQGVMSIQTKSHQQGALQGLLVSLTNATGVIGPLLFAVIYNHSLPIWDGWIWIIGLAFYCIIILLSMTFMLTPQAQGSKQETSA", "experiment": "biochemical", "set-up": "species or system E. coli"}, "E. faecalis ATCC 9790": {"test_system": "E. faecalis ATCC 9790", "experiment": "MIC of tetracycline susceptible strains, C5 esters", "type": "cell-based", "details": "Enterococcus faecalis, ATCC9790; E. faecalis ATCC 9790, alone; read-out: MIC"}, "S. aureus 450": {"test_system": "S. aureus 450", "experiment": "MIC of tetracycline susceptible strains, C5 esters", "type": "cell-based", "details": "Staphylococcus aureus; S. aureus 450, alone; read-out: MIC"}, "E. faecalis 211 (Tet M)": {"test_system": "E. faecalis 211 (Tet M)", "experiment": "MIC/MLC chart, analog with and without doxycycline;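 also: broth checkerboard of two-fold drug dilutions, alone and mixed with doxycycline, bacteria near 5×10^5 cells/ml, 18 h incubation at 37 °C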", "type": "cell-based"}, "[2]": {"details": "analog .195 μg/ml + doxycycline 1.56 μg/ml"}, "[3]": {"details": "analog .195 μg/ml + doxycycline 3.12 μg/ml"}, "[4]": {"details": "analog .195 μg/ml + doxycycline 6.25 μg/ml"}, "[5]": {"details": "analog .39 μg/ml + doxycycline 1.56 μg/ml"}, "[6]": {"details": "analog .39 μg/ml + doxycycline 3.12 μg/ml"}, "[7]": {"details": "analog alone .195 μg/ml (Analog Control)"}, "[8]": {"details": "analog alone .39 μg/ml (Analog Control)"}}, "note": "Where two headings read alike, the source gives them in different places.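 For MLC in combination in this document: E. coli at roughly 5×10^5 cells/ml in L broth, analog and doxycycline alone or mixed in two-fold dilutions from 50 to under 1 µg/ml, 18 h at 37 °C.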", "data": [{"smiles": "CCC(=O)OC1C2C(=C(O)C3(O)C(=O)C(C(N)=O)=C(O)C(N(C)C)C13)C(=O)c1c(O)cccc1C2CSC1CCCC1", "note": "(stereo not shown) [Cmpd 5, 13-cyclopentylthio-5-proprionate-6-deoxy tetracycline]", "values": [{"measurement": "MIC/MLC chart: growth or killing", "setting": "E. coli D1-299 (Tet A); analog 1.56 μg/ml + doxycycline 1.55 μg/ml", "value": "+"}, {"measurement": "MIC/MLC chart: growth or killing", "setting": "E. coli D1-299 (Tet A); analog 1.56 μg/ml + doxycycline 3.1 μg/ml", "value": "+"}, {"measurement": "MIC/MLC chart: growth or killing", "setting": "E. coli D1-299 (Tet A); analog 1.56 μg/ml + doxycycline 6.2 μg/ml", "value": "+"}, {"measurement": "MIC/MLC chart: growth or killing", "setting": "E. coli D1-299 (Tet A); analog 3.12 μg/ml + doxycycline 1.53 μg/ml", "value": "+"}, {"measurement": "MIC/MLC chart: growth or killing", "setting": "E. coli D1-299 (Tet A); analog 3.12 μg/ml + doxycycline 3.05 μg/ml", "value": "+"}, {"measurement": "MIC/MLC chart: growth or killing", "setting": "E. coli D1-299 (Tet A); analog 3.12 μg/ml + doxycycline 6.1 μg/ml", "value": "+"}, {"measurement": "MIC/MLC chart: growth or killing", "setting": "E. coli D1-299 (Tet A); analog 6.25 μg/ml + doxycycline 3.0 μg/ml", "value": "+"}, {"measurement": "MIC/MLC chart: growth or killing", "setting": "E. coli D1-299 (Tet A); analog 6.25 μg/ml + doxycycline […]", "value": "+"}, {"measurement": "MIC/MLC chart: growth or killing", "setting": "E. coli D1-299 (Tet A); analog 12.5 μg/ml + doxycycline 2.8 μg/ml", "value": "+"}, {"measurement": "MIC/MLC chart: growth or killing", "setting": "E. coli D1-299 (Tet A); analog 12.5 μg/ml + doxycycline […]", "value": "+"}, {"measurement": "MIC/MLC chart: growth or killing", "setting": "E. coli D1-299 (Tet A); analog 25 μg/ml + doxycycline 2.4 μg/ml", "value": "+"}, {"measurement": "MIC/MLC chart: growth or killing", "setting": "E. coli D1-299 (Tet A); analog 25 μg/ml + doxycycline […]", "value": "+"}, {"measurement": "MIC/MLC chart: growth or killing", "setting": "E. coli D1-299 (Tet A); analog 50 μg/ml + doxycycline 1.56 μg/ml", "value": "+"}, {"measurement": "MIC/MLC chart: growth or killing", "setting": "E. coli D1-299 (Tet A); analog 50 μg/ml + doxycycline .78 μg/ml", "value": "+"}, {"measurement": "MIC/MLC chart: growth or killing", "setting": "E. coli D1-299 (Tet A); [2]", "value": "+"}, {"measurement": "MIC/MLC chart: growth or killing", "setting": "E. coli D1-299 (Tet A); [3]", "value": "+"}, {"measurement": "MIC/MLC chart: growth or killing", "setting": "E. coli D1-299 (Tet A); [4]", "value": "+"}, {"measurement": "MIC/MLC chart: growth or killing", "setting": "E. coli D1-299 (Tet A); analog .195 μg/ml + doxycycline 12.5 μg/ml", "value": "+"}, {"measurement": "MIC/MLC chart: growth or killing", "setting": "E. coli D1-299 (Tet A); analog .195 μg/ml + doxycycline 25.0 μg/ml", "value": "+"}, {"measurement": "MIC/MLC chart: growth or killing", "setting": "E. coli D1-299 (Tet A); [5]", "value": "+"}, {"measurement": "MIC/MLC chart: growth or killing", "setting": "E. coli D1-299 (Tet A); [6]", "value": "+"}, {"measurement": "MIC/MLC chart: growth or killing", "setting": "E. coli D1-299 (Tet A); analog .39 μg/ml + doxycycline 6.25 μg/ml", "value": "+"}, {"measurement": "MIC/MLC chart: growth or killing", "setting": "E. coli D1-299 (Tet A); analog .39 μg/ml + doxycycline 12.5 μg/ml", "value": "+"}, {"measurement": "MIC/MLC chart: growth or killing", "setting": "E. coli D1-299 (Tet A); analog .39 μg/ml + doxycycline 24.9 μg/ml", "value": "↓"}, {"measurement": "MIC/MLC chart: growth or killing", "setting": "E. coli D1-299 (Tet A); analog .78 μg/ml + doxycycline 1.56 μg/ml", "value": "+"}, {"measurement": "MIC/MLC chart: growth or killing", "setting": "E. coli D1-299 (Tet A); analog .78 μg/ml + doxycycline 3.12 μg/ml", "value": "+"}, {"measurement": "MIC/MLC chart: growth or killing", "setting": "E. coli D1-299 (Tet A); analog .78 μg/ml + doxycycline 6.23 μg/ml", "value": "+"}, {"measurement": "MIC/MLC chart: growth or killing", "setting": "E. coli D1-299 (Tet A); analog .78 μg/ml + doxycycline 12.4 μg/ml", "value": "◯"}, {"measurement": "MIC/MLC chart: growth or killing", "setting": "E. coli D1-299 (Tet A); analog alone 1.56 μg/ml (Analog Control)", "value": "+"}, {"measurement": "MIC/MLC chart: growth or killing", "setting": "E. coli D1-299 (Tet A); analog alone 3.12 μg/ml (Analog Control)", "value": "+"}, {"measurement": "MIC/MLC chart: growth or killing", "setting": "E. coli D1-299 (Tet A); analog alone 6.25 μg/ml (Analog Control)", "value": "+"}, {"measurement": "MIC/MLC chart: growth or killing", "setting": "E. coli D1-299 (Tet A); analog alone 12.5 μg/ml (Analog Control)", "value": "+"}, {"measurement": "MIC/MLC chart: growth or killing", "setting": "E. coli D1-299 (Tet A); analog alone 25.0 μg/ml (Analog Control)", "value": "+"}, {"measurement": "MIC/MLC chart: growth or killing", "setting": "E. coli D1-299 (Tet A); analog alone 50.00 μg/ml (Analog Control)", "value": "+"}, {"measurement": "MIC/MLC chart: growth or killing", "setting": "E. coli D1-299 (Tet A); [7]", "value": "+"}, {"measurement": "MIC/MLC chart: growth or killing", "setting": "E. coli D1-299 (Tet A); [8]", "value": "+"}, {"measurement": "MIC/MLC chart: growth or killing", "setting": "E. coli D1-299 (Tet A); analog alone .78 μg/ml (Analog Control)", "value": "+"}, {"measurement": "MLC in combination", "setting": "E. coli D1-299 (Tet A); with 5.9 μg/ml doxycycline (Chart 8A)", "value": 6.25, "unit": "µg/mL"}, {"measurement": "MIC", "setting": "E. coli ML308", "value": 20, "unit": "µg/mL"}, {"measurement": "IC50", "setting": "[1]", "value": 3.3, "unit": "µM"}, {"measurement": "MIC", "setting": "E. faecalis ATCC 9790", "value": 0.4, "unit": "µg/mL"}, {"measurement": "MIC", "setting": "S. aureus 450", "value": 0.4, "unit": "µg/mL"}, {"measurement": "MIC/MLC chart: growth or killing", "setting": "E. faecalis 211 (Tet M); [2]", "value": "+"}, {"measurement": "MIC/MLC chart: growth or killing", "setting": "E. faecalis 211 (Tet M); [3]", "value": "+"}, {"measurement": "MIC/MLC chart: growth or killing", "setting": "E. faecalis 211 (Tet M); [4]", "value": "+"}, {"measurement": "MIC/MLC chart: growth or killing", "setting": "E. faecalis 211 (Tet M); [5]", "value": "◯"}, {"measurement": "MIC/MLC chart: growth or killing", "setting": "E. faecalis 211 (Tet M); [6]", "value": "◯"}, {"measurement": "MIC/MLC chart: growth or killing", "setting": "E. faecalis 211 (Tet M); [7]", "value": "+"}, {"measurement": "MIC/MLC chart: growth or killing", "setting": "E. faecalis 211 (Tet M); [8]", "value": "◯"}]}]}
